Patent publication US20250250258A1, “CRYSTAL FORM OF FGFR4 SELECTIVE INHIBITOR COMPOUND, AND PREPARATION METHOD THEREFOR AND USE THEREOF” (ZHEJIANG HISUN PHARMACEUTICAL CO., LTD., priority 2022, published 2025)
Like-named read-outs stand apart in the source and are kept apart here.

How the values were obtained:
[1] = tested on: hepatocellular carcinoma cells Hep3B; details: reported in background for PCT/CN2017/085135 compound, read-out: inhibitory activity against hepatocellular carcinoma cells Hep3B, IC50; cited from earlier work
[2] = Comparative solubility assay in water; assay type: physicochemical
[3] = Pharmacokinetic experiment in ICR mice, single gavage; assay type: in vivo; details: 75 mg·kg −1, single gavage
Description: Before and 0.25, 0.5, 1, 2, 4, 8, 10, 12 and 24 hours after administration, 0.15 mL blood was collected from fundus venous plexus and placed into anticoagulant tubes containing EDTA-K2.

[4] = Stability test (25° C., 40° C., light irradiation of 4500 LX, 30 days); assay type: physicochemical
Description: The compound represented by formula (I) of the present disclosure was subjected to HPLC for purity detection under the following conditions. The used chromatographic column was Waters, XBridge C18 4.6×150 mm, 3.5 μm; the mobile phase A consisted of buffer solution: acetonitrile=70:30, the mobile phase B consisted of buffer solution: acetonitrile=[…], the buffer solution was prepared by weighing 9.13 g of dipotassium hydrogen phosphate trihydrate in 2,000 mL of pure water, and adjusting pH using phosphoric acid to 8.0; the detection wavelength was 234 nm; the flow rate was 1.0 mL/min; the column temperature was 25° C.; and the injection volume was 10 μL.

[5] = stability at 25° C., day 0, HPLC
[6] = stability at 25° C., day 10, HPLC
[7] = stability at 25° C., day 30, HPLC
[8] = stability at 40° C., day 0, HPLC
[9] = stability at 40° C., day 10, HPLC
[10] = stability at 40° C., day 30, HPLC
[11] = stability under the light irradiation of 4500LX, day 0, HPLC
[12] = stability under the light irradiation of 4500LX, day 10, HPLC
[13] = stability under the light irradiation of 4500LX, day 30, HPLC

Row | solubility in water at 25° C. [2] | Tmax ([3]; ICR, mouse, in vivo, po, 75 mg/kg, read-out: Tmax) [min] | purity (%) [4, 5] [%] | purity (%) [4, 6] [%] | purity (%) [4, 7] [%] | purity (%) [4, 8] [%] | purity (%) [4, 9] [%] | purity (%) [4, 10] [%] | purity (%) [4, 11] [%] | purity (%) [4, 12] [%] | purity (%) [4, 13] [%] | solubility ([2]; 25 °C, thermodynamic from solid) [mg/mL] | Tmax [3] [min] | Cmax ([3]; mouse, in vivo, po) [ng/mL] | half-life ([3]; mouse, in vivo, po) [min] | AUC(0-t) ([3]; mouse, in vivo, po, 0-24 h sampling) [ng·h/mL] | solubility in water at 25° C. ([2]; listed as the crystal form A of the compound represented by formula (I)) [mg/mL] | Structure (SMILES) | IC50 [1] [nM]
1 | insoluble | – | – | – | – | – | – | – | – | – | – | – | – | – | – | – | – | C=CC(=O)Nc1cc(N2CCN(CC)C3(CC3)C2)ccc1Nc1cc(N(C)C(=O)Nc2c(Cl)c(OC)cc(OC)c2Cl)ncn1 [N-(2-((6-(3-(2,6-dichloro-3,5-dimethoxyphenyl)-1-methylureido)pyrimidin-4-yl)amino)-5-(4-ethyl-4,7-diazaspiro[2.5]octane-7-yl)phenyl)acrylamide] | 19
2 | – | 30 | 98.80 | 96.60 | 91.60 | 98.80 | 93.40 | 87.60 | 98.80 | 86.20 | 73.70 | 115 | – | – | – | – | – | C=CC(=O)Nc1cc(N2CCN(CC)C3(CC3)C2)ccc1Nc1cc(N(C)C(=O)Nc2c(Cl)c(OC)cc(OC)c2Cl)ncn1.CCS(=O)(=O)O.CCS(=O)(=O)O [amorphous form, N-(2-((6-(3-(2,6-dichloro-3,5-dimethoxyphenyl)-1-methylureido)pyrimidin-4-yl)amino)-5-(4-ethyl-4,7-diazaspiro[2.5]octan-7-yl)phenyl)acrylamide diethanesulfonate salt] | –
3 | – | – | 99.64 | 99.63 | 99.62 | 99.64 | 99.61 | 99.60 | 99.64 | 99.61 | 99.54 | – | 36.6 | 3980 | 91.2 | 9340 | 100 | C=CC(=O)Nc1cc(N2CCN(CC)C3(CC3)C2)ccc1Nc1cc(N(C)C(=O)Nc2c(Cl)c(OC)cc(OC)c2Cl)ncn1.CCS(=O)(=O)O.CCS(=O)(=O)O [crystal form A, N-(2-((6-(3-(2,6-dichloro-3,5-dimethoxyphenyl)-1-methylureido)pyrimidin-4-yl)amino)-5-(4-ethyl-4,7-diazaspiro[2.5]octan-7-yl)phenyl)acrylamide diethanesulfonate salt] | –
